{"source": "patent US4855303A", "about": "“Fluorine containing renin inhibitors” (Pfizer Inc., priority 1988, dated 1989)", "target": "T1, renin (Homo sapiens, UniProt P00797)", "T1 sequence (P00797 67-406)": "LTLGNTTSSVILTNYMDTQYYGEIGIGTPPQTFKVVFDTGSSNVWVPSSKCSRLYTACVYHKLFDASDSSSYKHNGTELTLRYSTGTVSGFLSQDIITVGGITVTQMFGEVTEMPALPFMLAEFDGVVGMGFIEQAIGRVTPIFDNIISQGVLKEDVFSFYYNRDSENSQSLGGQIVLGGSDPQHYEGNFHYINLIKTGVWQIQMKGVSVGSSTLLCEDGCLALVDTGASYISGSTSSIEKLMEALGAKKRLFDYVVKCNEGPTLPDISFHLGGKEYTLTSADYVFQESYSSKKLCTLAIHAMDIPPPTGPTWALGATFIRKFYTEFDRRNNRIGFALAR", "experiment": "renin inhibitory potency", "assay_type": "biochemical", "details": "2S,5S product compared with the 2R,5R isomer separated by HPLC", "excerpt": "The activity of the compounds of the present invention as inhibitors of the angiotensinogen-cleaving activity of renin may be determined by studying (1) their ability to inhibit the angiotensinogen-cleaving activity of renin in vitro and (2) their ability to antagonize the exogenous renin-induced pressor response in vivo."}
{"compound": "CCCC[C@H](NC(=O)[C@H](Cc1ccccc1)NC(=O)N1CCOCC1)C(=O)N[C@@H](CC1CCCCC1)C(=O)C(F)(F)[C@@H](CC(C)C)C(=O)OCC", "note": "[Example 10, Ethyl (2S,5S)-2-isobutyl-3,3-difluoro-4-keto-5-N-(N-[morpholinocarbonyl-L-phenylalanyl]-L-norleucyl)-amino-6-cyclohexylhexanoate]", "values": [{"measurement": "renin inhibitory potency", "result": "more active"}]}
